In PubChem BioAssay AID588387 (NMMLSC, 2011):
Activity calls are given as the source filed them.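 Rule for the calls: active = half-maximal binding-loss concentration at or below 10 µM, response change across doses of 30% or more, acceptable curve fit; inactive = the rest.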

Molecular target: GTPase HRas (Homo sapiens) (UniProt P01112)
Experiment: inhibition of Bodipy-GTP binding to activated H-Ras – biochemical, multiplex bead flow cytometry, round 1, SAR follow-up (AID 588387)
Settings: GST-H-Ras beads, Bodipy-FL-GTP binding; for % response (remaining GTP binding): at 100 µM (top of the series)

GTPase HRas (Homo sapiens), sequence (P01112 whole entry, looked up): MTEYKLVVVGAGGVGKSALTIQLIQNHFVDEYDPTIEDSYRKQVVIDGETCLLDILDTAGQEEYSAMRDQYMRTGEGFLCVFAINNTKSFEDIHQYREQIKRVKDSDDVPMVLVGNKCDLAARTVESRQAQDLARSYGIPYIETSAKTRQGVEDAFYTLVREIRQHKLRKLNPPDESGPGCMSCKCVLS

% response (remaining GTP binding)	EC50 [nM]	Compound
	45	CC1(C)Cc2c(sc(NC(=S)NC(=O)c3ccccc3Br)c2C(=O)O)CO1
	260	CC1(C)Cc2c(sc(NC(=S)NC(=O)c3ccc(Br)cc3)c2C(=O)O)CO1
inactive		CCOC(=O)c1c(NC(=O)Nc2ccc(F)cc2)sc2c1CCN(C)C2
	76	CC1(C)CCc2sc(NC(=S)NC(=O)c3ccccc3)c(C(=O)O)c2C1
inactive		CCOC(=O)c1c(NC(=S)NC(=O)c2ccccc2)sc2ccccc12
inactive		Cc1ccc(NC(=O)Nc2sc3c(c2C(=O)O)CCN(C)C3)cc1
inactive		CCOC(=O)c1c(N)sc2ccccc12
	32	O=C(NC(=S)Nc1sc2c(c1C(=O)O)CCOC2)c1ccccc1
	51	CC1(C)Cc2c(sc(NC(=S)NC(=O)c3ccccc3F)c2C(=O)O)CO1

The next lines start with the compound.

Compound	% response (remaining GTP binding)	EC50 [nM]
CN1CCc2c(sc3nc(Nc4ccc(F)cc4)oc(=O)c23)C1	inactive	
CCOC(=O)c1c(NC(=O)NC(C)(C)C)sc2c1CCN(C)C2	inactive	
CC1Cc2c(sc(NC(=S)NC(=O)c3ccccc3)c2C(=O)O)CO1 (configuration not stated)		47
CC1(C)Cc2c(sc(NC(=S)NC(=O)c3ccccc3)c2C(=O)O)CO1		82
Cc1ccc(Nc2nc3sc4c(c3c(=O)o2)CCN(C)C4)cc1	inactive	
CC1(C)Cc2c(sc(NC(=S)NC(=O)c3cccc(Br)c3)c2C(=O)O)CO1	inactive	
CC(C)(C)OC(=O)c1c(NC(=S)NC(=O)c2ccccc2)sc2c1CCOC2	inactive	
CCOC(=O)c1c(NC(=S)Nc2ccccc2)sc2c1CC(C)(C)OC2	inactive	
CN1CCc2c(sc(NC(=O)Nc3ccc(F)cc3)c2C(=O)O)C1	inactive	
CC1(C)Cc2c(sc(NC(=O)Cc3ccccc3)c2C(=O)O)CO1	inactive	
COc1cccc(C(=O)NC(=S)Nc2sc3c(c2C(=O)O)CC(C)(C)OC3)c1		33
CC1(C)Cc2c(sc(NC(=S)Nc3ccccc3)c2C(=O)O)CO1	inactive	
COC(=O)c1c(N)sc2c1CC(C)(C)OC2	inactive	
COc1ccc(C(=O)NC(=S)Nc2sc3c(c2C(=O)O)CC(C)(C)OC3)cc1		145
COC(=O)c1c(NC(=S)NC(=O)c2ccccc2)sc2c1CC(C)(C)OC2	inactive	
CC1(C)Cc2c(sc(NC(=S)NC(=O)c3cccc(F)c3)c2C(=O)O)CO1		278
CC1(C)Cc2c(sc(NC(=O)NC(=O)c3ccccc3)c2C(=O)O)CO1		151
CCOC(=O)c1c(NC(=O)Nc2ccc(C)cc2)sc2c1CCN(C)C2	inactive	
